The numbers were not newly measured in patent publication US6369065B1, “CD40 signal blocking agent” (UCB S.A., priority 2000, dated 2002), which cites them from elsewhere.

Molecules are shown by their SMILES.

For the data set, the system named is aorta lesions. To be noted: rabbit models of arteriosclerosis.

As for `CCCCCN(CCO)c1cc(N2CCCCC2)nc2ncnn12` [AR12463], the “progress of aorta lesions” value is on record as “suppress the progress of aorta lesions”.
